# Measurements reported in US20260284009A1, “COMPOUNDS FOR NOS-RELATED CANCERS AND METHODS OF USE” (YISSUM RESEARCH DEVELOPMENT COMPANY OF THE HEBREW …, priority 2023, published 2026).
# Experiments:
# [1] = test system: U87-MG cells; experiment: Clonogenic survival (colony) assay in U87-MG cells; assay type: cell-based, human
# Procedure: (§1) Human glioblastoma U87-MG cells were obtained from the American Type Culture Collection (ATCC) and maintained in Dulbecco's modified Eagle's Medium (DMEM) and Ham's F-12 (1:1) supplemented with 10% fetal bovine serum, 2 mM L-glutamine, and 100 U/ml penicillin-G/[…] streptomycin in the humidified atmosphere (37° C., 5% CO2). Cells were plated onto 25 cm^2 and 75 cm^2 at a density of 7.0×10^5 and 2.1×10^6 cells/cm^2 respectively for Western blotting (WB) and 1×10^5 for immunofluorescence. The U87-MG cells were treated with 100 μM 7-nitroindazole (7-NI) for 24 hr.
# Cells were seeded into 6-well plates at concentrations of 500/well or 1000/well in triplicates. After 24 hours, 7-NI was added, or cells were transiently transfected with siRNA-nNOS, as described above, before changing to serum-containing medium. […] Colonies were stained with crystal violet, washed with PBS, air-dried, and imaged. The colonies were visualized using ImageJ software. Cell colonies of greater than 50 cells were identified and counted.
# (§2) In a particular example, in vitro and in vivo experiments were performed using U87-MG cells and U87-MG-xenografted mice, respectively, as a glioblastoma model.
# [2] = test system: U87-MG cells; experiment: Clonogenic survival of U87-MG cells; assay type: cell-based, human; details: 100 μM 7-NI, 500 or 1000 μM L-NIL, combinations 100 μM 7-NI + 500 or 1000 μM L-NIL
# Text: (§3) Data are presented as mean±SEM.
# as §3
# [3] = test system: U87-MG cells; experiment: Nitrite (Griess) assay in U87-MG cells; assay type: cell-based, human
# Procedure: as §1, §2
# [4] = test system: U87-MG cells; experiment: Western blots of 3-Ntyr, CD-70, iNOS and nNOS in U87-MG cells; assay type: cell-based, human; details: western blot, 100 μM 7-NI, 500 or 1000 μM L-NIL, n=3
# Procedure: In FIGS. 12A-12D, for quantitative analysis data, all individual data series are presented as biological replicates (n=3) for all groups. Data are expressed as the mean±SEM.
# FIG. 12A: Representative western blots of 3-Ntyr and β-actin levels in U87-MG cells following administration of the control, 0.1% DMSO (“Vehicle”), or 100 μM 7-NI (“7-NI”).
# FIG. 12B: Quantitative analysis of 3-Ntyr levels for the experiments of FIG. 12A.
# FIG. 12C: Representative western blots of 3-Ntyr and β-actin levels in U87-MG cells following administration of the control, 500 μM L-NIL (“L-NIL 500”), or 1000 μM L-NIL (“L-NIL 1000”).
# FIG. 12D: Quantitative analysis of 3-Ntyr levels for the experiments of FIG. 12C.
# In FIGS. 13A-13B, for quantitative analysis data, all individual data series are presented as biological replicates (n=3) for all groups. Data are expressed as the mean±SEM.
# FIG. 13A: Representative western blots of CD-70 and β-actin levels in U87-MG cells following administration of the control, 0.1% DMSO (“Vehicle”), 100 μM 7-NI (“7-NI”), 500 μM L-NIL (“L-NIL 500”), or 1000 μM L-NIL (“L-NIL 1000”).
# FIG. 13B: Quantitative analysis of CD-70 levels for the experiments of FIG. 13A.
# In FIGS. 14A-14B, for quantitative analysis data, all individual data series are presented as biological replicates (n=3) for all groups. Data are expressed as the mean±SEM.
# FIG. 14A: Representative western blots of iNOS and β-actin levels in U87-MG cells following administration of the control, 0.1% DMSO (“Vehicle”), 100 μM 7-NI (“7-NI”), 500 μM L-NIL (“L-NIL 500”), or 1000 μM L-NIL (“L-NIL 1000”).
# FIG. 14B: Quantitative analysis of iNOS levels for the experiments of FIG. 14A.
# In FIGS. 15A-15B, for quantitative analysis data, all individual data series are presented as biological replicates (n=3) for all groups. Data are expressed as the mean±SEM.
# FIG. 15A: Representative western blots of nNOS and β-actin levels in U87-MG cells following administration of the control, 0.1% DMSO (“Vehicle”), 100 μM 7-NI (“7-NI”), 500 μM L-NIL (“L-NIL 500”), or 1000 μM L-NIL (“L-NIL 1000”).
# FIG. 15B: Quantitative analysis of nNOS levels for the experiments of FIG. 15A.
# [5] = test system: U87-MG-xenografted mice; experiment: Tumor volume and tumor mass in U87-MG-xenografted mice; assay type: in vivo; details: for tumor volume in a subset of mice: subset (top 4-5, smallest tumor volume) of U87-MG-xenografted mice, 10 mg/kg L-NIL or both
# Procedure: In FIGS. 16A-16B, data are expressed as the mean±SEM. Statistical significance was determined using a One-way ANOVA followed by Fisher's LSD multiple comparison post hoc test. **P<0.01, ***P<0.001, ****P<0.0001, and ns=not significant.
# FIG. 16A: Temporal tumor volume comparison for U87-MG-xenografted mice receiving treatment with 0.1% DMSO (“vehicle”) (n=10), 80 mg/kg 7-NI (“7-NI”) (n=10), 10 mg/kg L-NIL (“L-NIL”) (n=10), or 80 mg/kg 7-NI and 10 mg/kg L-NIL concurrently administered (“Combo”) (n=15).
# FIG. 16B: Quantitative analysis of tumor volume for U87-MG-xenografted mice after 8 days for the experiments of FIG. 16A.
# In FIGS. 17A-17B, data are expressed as the mean±SEM. Statistical significance was determined using a One-way ANOVA followed by Fisher's LSD multiple comparison post hoc test. *P<0.05, ****P<0.0001, and ns=not significant.
# FIG. 17B: Quantitative analysis of tumor volume after 8 days for the subset of U87-MG-xenografted mice for the experiments of FIG. 17A.
# In FIGS. 18A-18B, data are expressed as the mean.
# Data are expressed as the mean±SEM. Statistical significance was determined using a One-way ANOVA with Bonferroni's multiple comparisons tests. **P<0.01, ****P<0.0001, ns=not significant.
# Data are expressed as the mean±SEM. Statistical significance was determined using a One-way ANOVA with Bonferroni's multiple comparisons tests. *P<0.05, **P<0.01, ***P<0.001, and ****P<0.0001.
# [6] = U87-MG-xenografted mice, 80 mg/kg 7-NI, 10 mg/kg L-NIL or both concurrently, after 8 days, vs vehicle
SMILES,"colony growth ([1]; 7-NI, vs control and negative control (0.1% DMSO))",clonogenic survival [2],nitrite and nitrate content (Griess assay) ([3]; 7-NI),3-Ntyr (nitrotyrosine) levels [4],cluster of differentiation 70 (CD-70) levels [4],inducible nitric oxide synthase (iNOS) levels [4],neuronal nitric oxide synthase (nNOS) levels [4],"tumor volume [5, 6]","tumor volume ([5]; U87-MG-xenografted mice, 20, 40 or 80 mg/kg 7-NI intraperitoneal for 14 days, vs vehicle)","tumor mass ([5]; U87-MG-xenografted mice, 20, 40 or 80 mg/kg 7-NI, after 14 days, vs vehicle)","tumor volume in a subset of mice ([5]; 80 mg/kg 7-NI, after 8 days)","colony growth ([1]; higher dose of L-NIL, both experiments, vs control)","colony growth ([1]; lower dose of L-NIL, one experiment (FIG. 9), vs control)","colony growth ([1]; lower dose of L-NIL, second experiment (FIGS. 8C-8D), reduced vs control)","nitrite and nitrate content (Griess assay) ([3]; higher dose of L-NIL, one experiment (FIG. 10B), vs control)","nitrite and nitrate content (Griess assay) ([3]; higher dose of L-NIL, second experiment (FIG. 11), reduced vs control)","nitrite and nitrate content (Griess assay) ([3]; lower dose of L-NIL, one experiment (FIG. 11), vs control)","nitrite and nitrate content (Griess assay) ([3]; lower dose of L-NIL, second experiment (FIG. 10B), reduced vs control)"
"O=[N+]([O-])c1cccc2cn[nH]c12 [7-NI, 7-nitroindazole]",significantly impacted,significant decrease,dramatic reduction,significant decrease,did not lead to significant changes,did not lead to significant changes,did not lead to significant changes,significantly smaller,significantly smaller,significantly smaller,significantly smaller,,,,,,,
"CC(=N)NCCCC[C@H](N)C(=O)O [L-NIL, N^6-(1-iminoethyl)-L-lysine]",,significant decrease,,did not result in a significant decrease,did not lead to significant changes,did not lead to significant changes,did not lead to significant changes,significantly smaller,,,significantly smaller,significant decrease,significantly reduced,not statistically significant,significantly reduced,not statistically significant,significantly reduced,not statistically significant
